Source: article PMC10046901, “Molecular Analysis of the Superior Efficacy of a Dual Epidermal Growth Factor Receptor (EGFR)-DNA-Targeting Combi-Molecule in Comparison with Its Putative Prodrugs 6-Mono-Alkylamino- and 6,6-Dialkylaminoquinazoline in a Human Osteosarcoma Xenograft Model” (Cells, 2023)

Legend:
[1] = system: Saos-2; assay: cells; assay type: cell-based, human; conditions: for IC50: Homo sapiens, SAOS-2, 120 h, read-out: IC50 growth inhibition
[2] = system: panel of osteosarcoma cells (U2-OS, Saos-2, MG-63, MNNG/HOS, KHOS/NP); assay: Growth inhibition assay across panel of osteosarcoma cell lines; assay type: cell-based; conditions: for IC50: range over five osteosarcoma cell lines
[3] = Body weight / tolerance in xenografted mice; assay type: in vivo, NSG male mice; conditions: 80 mg/kg oral gavage every other day, 10 doses
Protocol: Animal experiments were executed in accordance with a protocol approved by the McGill Institutional Animal Care Committee (McGill University Health Centre Research Institute and McGill University, Montreal, Canada). Xenografts of the tumors were obtained via unilateral and subcutaneous injection (5 × 10^6 cells in 100 µL of a PBS1x solution) into immunodeficient NSG male mice (N = 28; 8 weeks old; weight = 30 g; Charles River, Canada). The mice were maintained at optimal temperature (24 °C) and relative humidity (50%) on a 12/12-light/dark cycle with free access to water and food. The mice were monitored clinically every day; body weights were recorded and tumor volumes were measured with a caliper using the formula 4/3 π (length/2) (width/2)^2 every other day. Once tumors reached 68 mm^3, the mice were randomly divided into 4 groups: 1 was treated with ZR2002 (N = 7), another was treated with JS84 (N = 7), another was treated with JS61 (N = 7) and the last was treated with a vehicle (N = 7). The mice were treated every other day for 20 days, receiving a total of 10 doses via oral gavage of 200 µL of a ZR2002, JS61 or JS84 solution at a dose of 80 mg/kg body weight or the vehicle (control group). The drugs were dissolved in a solution of 25% of alcohol (Greenfield, Toronto, ON, Canada), 25% of Cremophor (Sigma-Aldrich, St. Louis, MO, USA) and 50% of 0.9% NaCl (Sigma-Aldrich, St. Louis, MO, USA). The vehicle solution used the same mixture without any drug.

[4] = system: ɣ-H2AX phosphorylation; assay: P-H2AX in tumor tissue (immunohistochemistry, Western blot); assay type: in vivo, human; conditions: tumors 3 h after last dose, 80 mg/kg, N = 4
Protocol: In order to study the drug pharmacokinetics, 1 last dose (the 11th dose) was administered 3 h prior to sacrifice and after a break of 5 days from the previous drug administration.
At the end of the study, the mice were sacrificed, and the plasma and tumors were collected. The plasma was stored at −80 °C, and the tumor tissues were transversely cut into 2 parts: 1 was immediately frozen in liquid nitrogen and stored at −80 °C for Western blots and LC-MS analysis; the other was fixed in 4% paraformaldehyde and used for histology.
The tumors were fixed for 36 h in 4% paraformaldehyde, transferred to 70% EtOH and paraffin-embedded. Sections 4 µm thick were deparaffinized, rehydrated and incubated for 20 min at 37 °C with anti-P-EGFR (1–100, ab40815, Abcam, Cambridge, UK) or anti-P-H2AX (1–100, sc-517348, Santa Cruz Biotechnology, Dallas, TX, USA), followed by secondary Ab incubation with OmniMap anti-Rb HRP (760–4311, Roche, Basel, Switzerland) at room temperature for 16 min, followed by the detection kit ChromoMap Kit (760–4304, Roche, Basel, Switzerland), and the slides were then counterstained with hematoxylin, dehydrated, cleared and cover-slipped. The slides were digitally scanned using an Aperio scanner scope XT.
The tumor tissue samples were smashed with liquid nitrogen into a mortar, and the tumor powders were transferred to cold RIPA 1x buffer with an anti-protease and anti-phosphatase inhibitor cocktail (Roche, Basel, Switzerland) in ice for 1 h and sonicated. After centrifugation, the proteins were quantified and mixed in Laemmli buffer (Sigma-Aldrich, St. Louis, MO, USA), maintaining the same concentration.
Cell lysates or tissue lysates were loaded onto 4–20% SDS-PAGE gels (mini-protean TGx stain-free, Bio-Rad, Hercules, CA, USA) and transferred to PVDF membranes that were pre-wetted with methanol. […] The quantification of the immunoblots was performed on digitalized images using ImageLab Software 6.1 (Bio-Rad, Hercules, CA, USA). […]

Row | Compound | IC50 [1] [nM] | IC50 [2] [nM] | tolerance / body weight throughout treatment [3] | ɣ-H2AX phosphorylation in tumors vs control [4] | fold more potent than JS84 [1] [fold] | fold more potent than JS61 ([2]; ratio of IC50 values across the panel)
1 | ClCCN(CCCl)c1ccc2ncnc(Nc3cccc(Br)c3)c2c1 [JS61] | 1590 ± 100 | 1390 to 12500 | no significant weight loss | low levels of H2AX phosphorylation | – | –
2 | CN(CCCl)c1ccc2ncnc(Nc3cccc(Br)c3)c2c1 [JS84] | 250 ± 40 | 180 to 5040 | no significant weight loss | low levels of H2AX phosphorylation | – | –
3 | ClCCNc1ccc2ncnc(Nc3cccc(Br)c3)c2c1 [ZR2002] | 80 ± 10 | 80 to 450 | no significant weight loss | enhanced in comparison with the control, even if it was not statistically significant | 7 | 17–36 fold
